For 17 molecules, inhibition, Ki and Activity results are on record in ChEMBL document CHEMBL3102730, “Synthesis and evaluation of isoleucine derived angiotensin II AT(2) receptor ligands” (Bioorg Med Chem Lett, 2014).

pKi: −log10 of the molar value. Calls of active or inactive are those of the source. The rule behind the calls is not given here.

Test [1] addresses T1, Type-2 angiotensin II receptor (Homo sapiens) (UniProt P50052).
T1 sequence (whole entry): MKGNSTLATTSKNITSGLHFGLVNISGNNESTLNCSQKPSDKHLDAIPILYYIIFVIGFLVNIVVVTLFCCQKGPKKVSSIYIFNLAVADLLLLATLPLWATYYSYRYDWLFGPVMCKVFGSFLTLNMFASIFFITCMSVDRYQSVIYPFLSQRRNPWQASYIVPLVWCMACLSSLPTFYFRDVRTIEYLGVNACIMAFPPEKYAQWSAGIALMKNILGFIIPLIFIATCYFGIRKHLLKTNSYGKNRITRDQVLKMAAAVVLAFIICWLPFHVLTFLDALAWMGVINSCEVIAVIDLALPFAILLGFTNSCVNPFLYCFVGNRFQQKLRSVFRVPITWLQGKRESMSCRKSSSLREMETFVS
As to the kind of experiment: Displacement of [125I]CGP-42112A from human AT2 receptor expressed in HEK293 cells at 1 uM. It counts as cell-based.

The target in test [2] is T2, Type-2 angiotensin II receptor (Homo sapiens, UniProt P50052).
T2 sequence (P50052 whole entry): T1 sequence (whole entry)
As to the kind of experiment: Displacement of [125I]CGP-42112A from human AT2 receptor expressed in HEK293 cells. The class given is cell-based. In general terms: In a radioligand displacement assay an active substance lowers the binding of a labelled ligand.

Test [3] concerns the target T1, Type-2 angiotensin II receptor (Homo sapiens). As to the kind of experiment: Displacement of [125I]CGP-42112A from human AT2 receptor expressed in HEK293 cells at 10 uM. The class given is cell-based.
Test [4] has as its target T3, Type-1 angiotensin II receptor (Homo sapiens) (UniProt P30556).
T3 sequence (whole entry): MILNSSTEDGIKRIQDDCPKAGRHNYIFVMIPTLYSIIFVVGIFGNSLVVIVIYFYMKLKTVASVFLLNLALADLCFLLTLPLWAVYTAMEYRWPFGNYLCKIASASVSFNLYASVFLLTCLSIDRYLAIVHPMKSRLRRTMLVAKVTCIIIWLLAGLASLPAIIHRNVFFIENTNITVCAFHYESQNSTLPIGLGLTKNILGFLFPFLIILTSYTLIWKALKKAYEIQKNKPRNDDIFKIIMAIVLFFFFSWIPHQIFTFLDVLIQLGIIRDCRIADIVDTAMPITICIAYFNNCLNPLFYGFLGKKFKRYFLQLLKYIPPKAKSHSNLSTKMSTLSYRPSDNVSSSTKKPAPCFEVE
As to the kind of experiment: Binding affinity to AT1 receptor (unknown origin).

In test [5] the target is T2, Type-2 angiotensin II receptor. As to the kind of experiment: Displacement of [125I]Sarile from human AT2 receptor expressed in HEK293 cells. The class given is cell-based.

As a reminder, the inhibition is the relative decrease from the control value, in per cent. The term pKi denotes the Ki on a negative log10 scale, so that one unit is a factor of ten. High values mean a small Ki, low ones a large Ki. With `CC[C@H](C)[C@H](NC(=O)c1cccc(Cn2ccnc2)c1)C(=O)Nc1nccs1`, the inhibition in test [1] came to 4%; in test [3], 17%. The molecule also showed a pKi in test [2] of 4.38. In addition, the outcome in test [4] was inactive.

On to `CC[C@H](C)[C@H](NC(=O)c1cccc(Cn2ccnc2)c1)C(=O)NC#N`, for which the inhibition in test [1] worked out at 6%; in test [3] it was 9%. In test [4], the outcome was inactive.

As to `CC[C@H](C)[C@H](NC(=O)c1cccc(Cn2ccnc2)c1)C(=O)NS(=O)(=O)c1ccccc1`, the figures for the inhibition in test [1] and in test [3] were 5% and 24%, respectively. This molecule also had a pKi in test [2] of 4.74. The result in test [4] was inactive.

On to `CC[C@H](C)[C@H](NC(=O)c1cccc(Cn2ccnc2)c1)C(=O)NNS(=O)(=O)c1c(C)cc(C)cc1C`, for which the figures for the inhibition in test [1] and in test [3] were 10% and 27%, respectively. For the same molecule, the pKi in test [2] was 5.07. Also, in test [4], the outcome was inactive.

Turning to `CCCCS(=O)(=O)NNC(=O)[C@@H](NC(=O)c1cccc(Cn2ccnc2)c1)[C@@H](C)CC`, the pKi in test [2] was below 4.00. For the same molecule, in test [4], the outcome was inactive.

As to `CC[C@H](C)[C@H](NC(=O)c1cccc(Cn2ccnc2)c1)C(=O)NO`, the inhibition entry in test [1] was “inactive”. In test [3], the inhibition was 4%. For the same molecule, in test [4], the outcome was inactive.

As to `CC[C@H](C)[C@H](NC(=O)c1cccc(Cn2ccnc2)c1)C(N)=O`, the inhibition entry in test [1] and in test [3] was “inactive” throughout. Moreover, the result in test [4] was inactive.

Consider `CC[C@H](C)[C@H](NC(=O)c1cccc(Cn2ccnc2)c1)C(=O)NNC(=O)OC(C)(C)C`, for which, in test [2], the pKi was below 4.00. Also, in test [4], the result was inactive.

`CCCCNC(=O)[C@@H](NC(=O)c1cccc(Cn2ccnc2)c1)[C@@H](C)CC`: in test [1], the inhibition entry is “inactive”. The inhibition in test [3] is 3%. For the same molecule, in test [4], the result was inactive.

`CC[C@H](C)[C@H](NC(=O)c1cccc(Cn2ccnc2)c1)c1nn[nH]n1`: the inhibition result in test [1] and in test [3] was “inactive” in each case. Also, the result in test [4] was inactive.

For `CC[C@H](C)[C@H](NC(=O)c1cccc(Cn2ccnc2)c1)C(=O)NNS(=O)(=O)c1ccc(C)cc1`, the inhibition in test [1] came out at 4%; in test [3] it was 20%. Besides, the pKi in test [2] is 4.54. Also, the result in test [4] was inactive.

As to `CCCCCS(=O)(=O)NNC(=O)[C@@H](NC(=O)c1cccc(Cn2ccnc2)c1)[C@@H](C)CC`, the pKi in test [2] was below 4.00. For the same molecule, the result in test [4] was inactive.

For `CC[C@H](C)[C@H](NC(=O)c1cccc(Cn2ccnc2)c1)C(=O)NNS(=O)(=O)c1ccccc1`, the figures for the inhibition in test [1] and in test [3] were 6% and 18%, respectively. Moreover, the negative logarithm of the Ki (pKi) in test [2] is below 4.00. The result in test [4] was inactive.

Consider `CC[C@H](C)[C@H](NC(=O)c1cccc(Cn2ccnc2)c1)C(=O)NNS(=O)(=O)c1ccc(OC)cc1`, for which the inhibition was 3% in test [1] and 20% in test [3]. The pKi in test [2] was 5.04. In addition, the outcome in test [4] was inactive.

For the molecule `CC[C@H](C)[C@H](NC(=O)c1cccc(Cn2ccnc2)c1)C(=O)NCC(F)(F)F`, the inhibition in test [1] worked out at 6%; in test [3] it was 14%. Besides, in test [4], the result was inactive.

In test [2], `CCCCS(=O)(=O)NC(=O)[C@@H](NC(=O)c1cccc(Cn2ccnc2)c1)[C@@H](C)CC` showed a pKi of 5.00. Besides, the result in test [4] was inactive.

For the molecule `CC[C@H](C)[C@H](NC(=O)c1cccc(Cn2ccnc2)c1)C(=O)O`, the pKi in test [5] was 4.33. Also, the result in test [4] was inactive.
